Test results taken from paper PMC7316778 (Nature Communications, 2020).
pIC50: −log10 of the molar value. Several values for one entry are separate records, joined by “and”; a condition that tells them apart may be missing. Identical values can stand only once. Like-named read-outs stand apart in the source and are kept apart here.

Columns and labels:
Assay in all cases: SelectScreen kinase assay
PRKCQ (PKC theta) = PRKCQ (PKC theta) (Homo sapiens, UniProt Q04759); conditions: 1 h, 1 μM WEL028, 1 h preincubation
Method: (§1) Selectivity profiling assays were performed by the Invitrogen SelectScreen™ Services. […] The concentration of ATP was selected to be equal to the KM, unless indicated otherwise.

ROS1 = ROS1 (Homo sapiens, UniProt P08922)
Method: as §1

MASTL = MASTL (Homo sapiens, UniProt Q96GX5)
Method: as §1

ADRBK2 (GRK3) = molecular target: T1, ADRBK2 (GRK3) (Homo sapiens, UniProt P35626)
T1 sequence (P35626 1-688): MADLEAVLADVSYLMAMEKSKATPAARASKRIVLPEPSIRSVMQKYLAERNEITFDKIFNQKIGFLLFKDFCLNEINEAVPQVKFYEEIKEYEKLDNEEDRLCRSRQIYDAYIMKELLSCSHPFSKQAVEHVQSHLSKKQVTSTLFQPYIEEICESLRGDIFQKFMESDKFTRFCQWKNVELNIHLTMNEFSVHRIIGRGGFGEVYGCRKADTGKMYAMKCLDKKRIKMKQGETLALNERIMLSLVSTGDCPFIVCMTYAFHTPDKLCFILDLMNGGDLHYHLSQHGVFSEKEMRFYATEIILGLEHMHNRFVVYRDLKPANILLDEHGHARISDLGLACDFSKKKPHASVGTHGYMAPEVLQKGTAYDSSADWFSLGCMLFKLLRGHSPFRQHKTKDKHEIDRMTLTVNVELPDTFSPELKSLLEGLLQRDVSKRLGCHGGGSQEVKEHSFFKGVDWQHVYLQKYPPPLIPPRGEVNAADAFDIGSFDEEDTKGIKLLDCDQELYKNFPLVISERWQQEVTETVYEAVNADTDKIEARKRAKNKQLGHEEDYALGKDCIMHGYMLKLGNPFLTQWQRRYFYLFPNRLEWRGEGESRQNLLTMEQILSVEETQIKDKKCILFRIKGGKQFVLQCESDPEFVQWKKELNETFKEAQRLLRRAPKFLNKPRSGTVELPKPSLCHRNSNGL
Method: as §1

PRKCG (PKC gamma) = PRKCG (PKC gamma) (Homo sapiens, UniProt P05129); conditions: for Inhibition at 1 µM (%): PRKCG (PKC gamma), ZLYTE, ATP Km app
Method: as §1

PIK3C2G (PI3K-C2 gamma) = PIK3C2G (PI3K-C2 gamma) (Homo sapiens, UniProt O75747)
Method: as §1

PIM2 = PIM2 (Homo sapiens, UniProt Q9P1W9)
Method: as §1

MAPKAPK5 (PRAK) = molecular target: T2, MAPKAPK5 (PRAK) (Homo sapiens, UniProt Q8IW41)
T2 sequence (Q8IW41 1-473): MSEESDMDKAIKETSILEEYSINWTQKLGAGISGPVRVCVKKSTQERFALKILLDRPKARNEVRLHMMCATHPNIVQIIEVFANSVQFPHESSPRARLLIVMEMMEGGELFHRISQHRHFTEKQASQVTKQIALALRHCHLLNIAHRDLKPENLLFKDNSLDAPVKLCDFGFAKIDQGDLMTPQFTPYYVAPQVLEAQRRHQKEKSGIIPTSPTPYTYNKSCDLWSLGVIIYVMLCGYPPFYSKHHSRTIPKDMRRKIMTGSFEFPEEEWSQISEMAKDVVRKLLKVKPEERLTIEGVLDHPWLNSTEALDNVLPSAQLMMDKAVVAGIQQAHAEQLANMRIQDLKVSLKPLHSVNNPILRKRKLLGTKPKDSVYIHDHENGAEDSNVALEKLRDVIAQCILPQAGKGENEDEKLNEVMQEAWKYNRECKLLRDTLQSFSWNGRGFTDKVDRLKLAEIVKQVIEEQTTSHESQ
Method: as §1

MAP3K3 (MEKK3) = MAP3K3 (MEKK3) (Homo sapiens, UniProt Q99759)
Method: as §1

DYRK1B = DYRK1B (Homo sapiens, UniProt Q9Y463); conditions: 1 h, 1 μM WEL028, 1 h preincubation
Method: as §1

PAK2 (PAK65) = PAK2 (PAK65) (Homo sapiens, UniProt Q13177)
Method: as §1

PRKX = PRKX (Homo sapiens, UniProt P51817)
Method: as §1

TAOK2 (TAO1) = TAOK2 (TAO1) (Homo sapiens, UniProt Q9UL54)
Method: as §1

MAPK3 (ERK1) = MAPK3 (ERK1) (Homo sapiens, UniProt P27361)
Method: as §1

EPHA4 = EPHA4 (Homo sapiens, UniProt P54764)
Method: as §1

HIPK3 (YAK1) = HIPK3 (YAK1) (Homo sapiens, UniProt Q9H422)
Method: as §1

[1] = 1 µM, ZLYTE, ATP Km app, listed as WEL028, 1 µM
[2] = 1 h, 1 μM WEL028, 1 h preincubation
[3] = 1 h, log[inhibitor] (M) -5.00, ZLYTE, ATP Km app
[4] = 1 h, log[inhibitor] (M) -5.48, ZLYTE, ATP Km app
[5] = 1 h, log[inhibitor] (M) -5.95, ZLYTE, ATP Km app
[6] = 1 h, log[inhibitor] (M) -6.43, ZLYTE, ATP Km app
[7] = IC50 on that kinase divided by IC50 on FES^S700C

Sequence of EPHA4 (P54764 20-986): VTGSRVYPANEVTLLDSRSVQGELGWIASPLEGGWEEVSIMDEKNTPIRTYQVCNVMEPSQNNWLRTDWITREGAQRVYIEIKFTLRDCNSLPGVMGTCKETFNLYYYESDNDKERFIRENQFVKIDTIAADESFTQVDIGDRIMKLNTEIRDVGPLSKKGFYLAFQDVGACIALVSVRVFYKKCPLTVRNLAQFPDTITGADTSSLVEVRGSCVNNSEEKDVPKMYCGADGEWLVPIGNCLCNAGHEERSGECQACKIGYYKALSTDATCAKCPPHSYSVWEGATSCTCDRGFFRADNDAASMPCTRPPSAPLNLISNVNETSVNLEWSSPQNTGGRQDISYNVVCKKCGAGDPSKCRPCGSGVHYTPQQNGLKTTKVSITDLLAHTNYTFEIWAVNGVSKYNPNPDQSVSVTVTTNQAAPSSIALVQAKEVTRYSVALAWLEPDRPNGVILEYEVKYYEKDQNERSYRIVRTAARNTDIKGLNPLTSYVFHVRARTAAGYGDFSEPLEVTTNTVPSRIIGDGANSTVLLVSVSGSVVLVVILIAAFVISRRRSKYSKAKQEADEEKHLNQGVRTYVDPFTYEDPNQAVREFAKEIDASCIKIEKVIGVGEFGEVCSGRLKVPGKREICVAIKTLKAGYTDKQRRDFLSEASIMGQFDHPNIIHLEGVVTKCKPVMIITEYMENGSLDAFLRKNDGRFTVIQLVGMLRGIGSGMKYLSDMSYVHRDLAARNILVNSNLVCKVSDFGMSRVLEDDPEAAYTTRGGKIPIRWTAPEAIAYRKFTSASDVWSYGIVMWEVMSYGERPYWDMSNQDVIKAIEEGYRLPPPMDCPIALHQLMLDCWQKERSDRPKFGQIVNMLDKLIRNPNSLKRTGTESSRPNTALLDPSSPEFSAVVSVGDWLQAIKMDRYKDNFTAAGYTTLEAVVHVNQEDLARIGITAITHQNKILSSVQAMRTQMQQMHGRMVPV
Sequence of MAPK3 (ERK1) (P27361 whole entry): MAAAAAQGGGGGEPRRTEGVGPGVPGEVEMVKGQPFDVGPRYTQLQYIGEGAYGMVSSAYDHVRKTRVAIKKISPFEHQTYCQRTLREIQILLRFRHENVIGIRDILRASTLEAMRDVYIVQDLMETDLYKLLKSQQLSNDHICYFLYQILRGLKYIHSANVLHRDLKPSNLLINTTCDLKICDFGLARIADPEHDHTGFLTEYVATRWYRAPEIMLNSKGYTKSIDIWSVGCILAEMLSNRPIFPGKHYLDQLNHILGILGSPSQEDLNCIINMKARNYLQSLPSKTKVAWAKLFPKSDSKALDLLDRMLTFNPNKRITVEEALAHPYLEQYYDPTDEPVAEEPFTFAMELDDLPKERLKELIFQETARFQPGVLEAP
Sequence of TAOK2 (TAO1) (Q9UL54 whole entry): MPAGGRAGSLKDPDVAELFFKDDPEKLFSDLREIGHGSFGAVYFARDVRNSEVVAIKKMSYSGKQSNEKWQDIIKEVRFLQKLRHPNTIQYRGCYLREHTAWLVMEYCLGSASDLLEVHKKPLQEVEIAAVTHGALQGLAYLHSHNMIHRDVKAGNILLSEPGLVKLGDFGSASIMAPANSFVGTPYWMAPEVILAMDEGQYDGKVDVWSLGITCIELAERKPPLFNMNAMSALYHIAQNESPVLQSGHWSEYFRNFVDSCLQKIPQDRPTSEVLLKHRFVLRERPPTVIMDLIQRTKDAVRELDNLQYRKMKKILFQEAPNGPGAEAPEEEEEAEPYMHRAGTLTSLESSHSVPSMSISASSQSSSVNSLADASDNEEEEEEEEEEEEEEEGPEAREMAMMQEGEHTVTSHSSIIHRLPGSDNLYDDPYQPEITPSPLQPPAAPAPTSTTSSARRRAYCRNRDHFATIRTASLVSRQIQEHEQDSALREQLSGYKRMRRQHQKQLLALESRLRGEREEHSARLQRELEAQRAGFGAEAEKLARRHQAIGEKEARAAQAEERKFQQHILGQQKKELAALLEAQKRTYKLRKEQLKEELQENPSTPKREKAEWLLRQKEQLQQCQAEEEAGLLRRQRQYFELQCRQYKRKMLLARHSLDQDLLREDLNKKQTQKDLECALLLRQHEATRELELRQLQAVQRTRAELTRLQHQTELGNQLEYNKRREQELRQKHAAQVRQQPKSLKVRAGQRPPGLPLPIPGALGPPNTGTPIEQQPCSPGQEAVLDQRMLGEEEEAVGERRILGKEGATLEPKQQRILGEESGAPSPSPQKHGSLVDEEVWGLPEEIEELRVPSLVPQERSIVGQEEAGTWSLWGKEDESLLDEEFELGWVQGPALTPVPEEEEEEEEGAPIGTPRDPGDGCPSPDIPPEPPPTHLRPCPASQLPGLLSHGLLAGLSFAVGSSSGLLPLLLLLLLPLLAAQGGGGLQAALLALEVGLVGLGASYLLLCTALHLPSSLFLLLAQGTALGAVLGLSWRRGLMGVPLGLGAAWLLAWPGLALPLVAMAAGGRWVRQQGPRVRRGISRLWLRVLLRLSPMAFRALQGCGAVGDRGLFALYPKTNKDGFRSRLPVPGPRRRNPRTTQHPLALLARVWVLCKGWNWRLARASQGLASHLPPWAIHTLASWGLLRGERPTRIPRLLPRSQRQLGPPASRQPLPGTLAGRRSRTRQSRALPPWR
Sequence of PAK2 (PAK65) (Q13177 whole entry): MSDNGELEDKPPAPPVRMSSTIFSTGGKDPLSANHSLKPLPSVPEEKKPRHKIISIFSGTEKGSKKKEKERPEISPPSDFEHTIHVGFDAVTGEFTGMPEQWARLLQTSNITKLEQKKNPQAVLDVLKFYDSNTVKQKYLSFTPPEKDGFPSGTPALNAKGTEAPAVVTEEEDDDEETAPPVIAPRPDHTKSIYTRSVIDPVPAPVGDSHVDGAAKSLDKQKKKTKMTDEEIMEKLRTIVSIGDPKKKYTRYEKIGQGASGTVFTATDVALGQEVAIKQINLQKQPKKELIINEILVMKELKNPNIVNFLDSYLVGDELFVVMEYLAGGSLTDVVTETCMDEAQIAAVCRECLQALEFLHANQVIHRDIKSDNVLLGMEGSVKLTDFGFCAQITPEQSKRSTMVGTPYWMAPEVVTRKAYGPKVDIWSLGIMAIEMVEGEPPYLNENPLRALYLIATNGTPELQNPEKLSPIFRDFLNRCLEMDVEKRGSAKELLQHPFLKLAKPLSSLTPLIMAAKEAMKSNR
Sequence of MASTL (Q96GX5 whole entry): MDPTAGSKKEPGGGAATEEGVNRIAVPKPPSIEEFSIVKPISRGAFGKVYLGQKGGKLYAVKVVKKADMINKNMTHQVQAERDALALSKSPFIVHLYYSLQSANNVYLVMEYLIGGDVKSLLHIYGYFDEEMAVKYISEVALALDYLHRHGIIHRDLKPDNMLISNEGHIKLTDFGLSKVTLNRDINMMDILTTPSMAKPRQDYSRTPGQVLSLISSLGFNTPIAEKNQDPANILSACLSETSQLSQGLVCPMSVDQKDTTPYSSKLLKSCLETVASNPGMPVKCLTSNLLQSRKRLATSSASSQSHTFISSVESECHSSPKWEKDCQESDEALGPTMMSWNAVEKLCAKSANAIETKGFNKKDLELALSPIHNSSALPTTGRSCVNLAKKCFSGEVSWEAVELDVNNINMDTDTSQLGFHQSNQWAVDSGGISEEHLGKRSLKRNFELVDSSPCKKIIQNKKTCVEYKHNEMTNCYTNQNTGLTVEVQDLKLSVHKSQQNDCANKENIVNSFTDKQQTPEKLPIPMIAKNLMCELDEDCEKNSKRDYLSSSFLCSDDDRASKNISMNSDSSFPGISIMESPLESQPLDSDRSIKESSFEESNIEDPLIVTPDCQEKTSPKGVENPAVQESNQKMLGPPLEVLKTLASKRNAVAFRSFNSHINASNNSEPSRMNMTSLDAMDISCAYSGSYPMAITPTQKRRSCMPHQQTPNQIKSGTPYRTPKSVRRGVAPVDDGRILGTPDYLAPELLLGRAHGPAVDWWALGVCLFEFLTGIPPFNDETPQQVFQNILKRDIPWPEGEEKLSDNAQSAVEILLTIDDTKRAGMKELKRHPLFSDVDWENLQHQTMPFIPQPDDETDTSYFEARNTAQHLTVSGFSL
Sequence of PRKX (P51817 whole entry): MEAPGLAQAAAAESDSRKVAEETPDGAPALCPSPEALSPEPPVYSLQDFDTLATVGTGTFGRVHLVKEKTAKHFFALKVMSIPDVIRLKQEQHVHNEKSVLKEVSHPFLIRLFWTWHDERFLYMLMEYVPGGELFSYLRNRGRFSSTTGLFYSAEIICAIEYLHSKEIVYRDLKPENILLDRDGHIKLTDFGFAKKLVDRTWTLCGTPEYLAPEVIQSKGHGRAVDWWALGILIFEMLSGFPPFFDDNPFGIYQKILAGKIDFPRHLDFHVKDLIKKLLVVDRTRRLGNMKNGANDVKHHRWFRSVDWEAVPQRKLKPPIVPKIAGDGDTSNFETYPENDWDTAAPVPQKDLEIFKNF

With `C#CCOc1ccc(Nc2ncc(Cl)c(Nc3ccccc3NC(=O)C=C)n2)c(OC)c1` [Compound 6] the inhibition at 1 µM (PRKCQ (PKC theta)) was 8%, the pIC50 (ROS1) was under 5.00 and the “Inhibition at 1 µM (%)” value (ROS1; [1]) was 52%. The inhibition at 1 µM (ROS1; [2]) was 56%, the inhibition at 10 µM (ROS1; [3]) was 76% and the inhibition at 3.31 µM (ROS1; [4]) was 80%. For the same molecule, the inhibition at 1.12 µM (ROS1; [5]) was 53%, the inhibition at 0.372 µM (ROS1; [6]) was 42% and the inhibition at 0.123 µM (ROS1; 1 h, log[inhibitor] (M) -6.91, ZLYTE, ATP Km app) was 23%. The inhibition at 0.00151 µM (ROS1; 1 h, log[inhibitor] (M) -8.82, ZLYTE, ATP Km app) was 6%, the Apparent fold selectivity (ROS1; [7]) was over 238 fold and the inhibition at 1 µM (ROS1; read-out: Inhibition at 1 µM (%), 1 µM, ZLYTE, ATP Km app) was 60%. For the same molecule, the “Inhibition (%)” value (MASTL; 1 μM WEL028, 1 h preincubation) was 3%, the “Inhibition at 1 µM (%)” value (MASTL; MASTL, 1 µM, LanthaScreen Binding, listed as WEL028, 1 µM) was 6% and 0% and the inhibition at 1 µM (ADRBK2 (GRK3); [2]) was 7%. For the same molecule, the “Inhibition at 1 µM (%)” value (ADRBK2 (GRK3); ADRBK2 (GRK3), 1 µM, ZLYTE, ATP Km app, listed as WEL028, 1 µM) was 8%, the inhibition at 1 µM (ADRBK2 (GRK3); read-out: Inhibition at 1 µM (%), ADRBK2 (GRK3), 1 µM, ZLYTE, ATP Km app) was 5% and the inhibition at 1 µM (PRKCG (PKC gamma); [2]) was 1%. For the same molecule, the “Inhibition at 1 µM (%)” value (PRKCG (PKC gamma)) was -3%, the “Inhibition at 1 µM (%)” value (PRKCG (PKC gamma); listed as WEL028, 1 µM) was 5% and the inhibition at 1 µM (PIK3C2G (PI3K-C2 gamma); [2]) was -3%. For the same molecule, the “Inhibition at 1 µM (%)” value (PIK3C2G (PI3K-C2 gamma); PIK3C2G (PI3K-C2 gamma), 1 µM, Adapta, ATP 10, listed as WEL028, 1 µM) was -1% and -6%, the inhibition at 1 µM (PIM2; [2]) was -4% and the “Inhibition at 1 µM (%)” value (PIM2; PIM2, 1 µM, ZLYTE, ATP Km app) was -3%. The pIC50 (MAPKAPK5 (PRAK)) was 6.30, the inhibition at 1 µM (MAPKAPK5 (PRAK); [2]) was 66% and the inhibition at 10 µM (MAPKAPK5 (PRAK); [3]) was 95%. It also gave an inhibition at 3.31 µM (MAPKAPK5 (PRAK); [4]) of 94%, an inhibition at 1.12 µM (MAPKAPK5 (PRAK); [5]) of 76% and an inhibition at 0.372 µM (MAPKAPK5 (PRAK); [6]) of 36%. For the same molecule, the inhibition at 0.04074 µM (MAPKAPK5 (PRAK); 1 h, log[inhibitor] (M) -7.39, ZLYTE, ATP Km app) was 13%, the inhibition at 0.004571 µM (MAPKAPK5 (PRAK); 1 h, log[inhibitor] (M) -[…], ZLYTE, ATP Km app) was 4% and the Apparent fold selectivity (MAPKAPK5 (PRAK); [7]) was 112 fold. For the same molecule, the “Inhibition at 1 µM (%)” value (MAPKAPK5 (PRAK); MAPKAPK5 (PRAK), 1 µM, ZLYTE, ATP Km app, listed as WEL028, 1 µM) was 70%, the inhibition at 1 µM (MAPKAPK5 (PRAK); read-out: Inhibition at 1 µM (%), MAPKAPK5 (PRAK), 1 µM, ZLYTE, ATP Km app) was 62% and the inhibition at 1 µM (MAP3K3 (MEKK3); [2]) was 7%. It also gave an inhibition at 1 µM (MAP3K3 (MEKK3); read-out: Inhibition at 1 µM (%), MAP3K3 (MEKK3), 1 µM, LanthaScreen Binding) of 8%, an inhibition at 1 µM (DYRK1B) of 0% and an inhibition at 1 µM (PAK2 (PAK65); [2]) of 29%. The “Inhibition at 1 µM (%)” value (PAK2 (PAK65); PAK2 (PAK65), 1 µM, ZLYTE, ATP Km app, listed as WEL028, 1 µM) was 23%, the inhibition at 1 µM (PAK2 (PAK65); read-out: Inhibition at 1 µM (%), PAK2 (PAK65), 1 µM, ZLYTE, ATP Km app) was 35% and the “Inhibition at 1 µM (%)” value (PRKX; [1]) was -6% and 0%. For the same molecule, the inhibition at 1 µM (PRKX; [2]) was -3%, the “Inhibition at 1 µM (%)” value (TAOK2 (TAO1); [1]) was -1% and 9% and the inhibition at 1 µM (TAOK2 (TAO1); [2]) was 4%. For the same molecule, the inhibition at 1 µM (MAPK3 (ERK1); [2]) was 19%, the “Inhibition at 1 µM (%)” value (MAPK3 (ERK1); MAPK3 (ERK1), 1 µM, ZLYTE, ATP Km app, listed as WEL028, 1 µM) was 14% and the inhibition at 1 µM (MAPK3 (ERK1); read-out: Inhibition at 1 µM (%), MAPK3 (ERK1), 1 µM, ZLYTE, ATP Km app) was 23%. For the same molecule, the inhibition at 1 µM (EPHA4; [2]) was 5%, the “Inhibition at 1 µM (%)” value (EPHA4; EPHA4, 1 µM, ZLYTE, ATP Km app, listed as WEL028, 1 µM) was 4% and the inhibition at 1 µM (EPHA4; read-out: Inhibition at 1 µM (%), EPHA4, 1 µM, ZLYTE, ATP Km app) was 5%. The inhibition at 1 µM (HIPK3 (YAK1); [2]) was -3% and the “Inhibition at 1 µM (%)” value (HIPK3 (YAK1); HIPK3 (YAK1), 1 µM, ZLYTE, ATP Km app) was -11%.
